Data from publication PMC9358681 (Biochemical pharmacology, 2022).
Where “and” joins values, the source holds several entries; their conditions need not be identical. Equal entries are not always repeated. Where two headings read alike, the source gives them in different places.

Tests used:
[1] = target: T1, human A2BAR (Homo sapiens, UniProt P29275); experiment: [3H]PSB-603 competition association assay; format: binding; details: for RT: RT = 1/koff, competing ligand at 1.0-fold IC50, up to 3 hr; for Kd: read-out: Kinetic KD (koff/kon)
T1 construct: host or cells: CHO-spap
T1 sequence (P29275 1-332): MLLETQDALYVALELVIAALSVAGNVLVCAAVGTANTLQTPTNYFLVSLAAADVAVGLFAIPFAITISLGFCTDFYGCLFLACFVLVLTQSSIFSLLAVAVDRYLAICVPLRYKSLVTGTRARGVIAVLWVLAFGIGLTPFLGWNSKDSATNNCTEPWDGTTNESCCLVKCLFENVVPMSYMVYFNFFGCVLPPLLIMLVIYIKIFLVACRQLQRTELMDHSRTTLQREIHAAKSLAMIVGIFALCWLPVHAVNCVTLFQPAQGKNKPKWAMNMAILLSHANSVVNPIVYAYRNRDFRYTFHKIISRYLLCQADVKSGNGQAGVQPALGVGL
Protocol: In all radioligand binding experiments, CHO-spap-hA2BAR membranes were thawed and homogenized using an Ultra Turrax homogenizer at 24,000 rpm (IKA-Werke GmbH & Co.KG, Staufen, Germany), diluted in assay buffer to the desired concentration (10–30 μg per well or Eppendorf tube). All materials were brought to 25 °C, 30 min prior to the experiment. ZM241385 (10 μM) was used to determine nonspecific binding (NSB).
Addition of CHO-spap-hA2BAR membrane aliquots initiated the association. The amount of receptor-bound radioligand was determined at different time points up to 3 hr. After 3 hr the incubation was terminated and samples were obtained as described under “Displacement experiments”.
All competition association data were globally fitted.

[2] = target: T1, human A2BAR; experiment: [3H]PSB-603 displacement on CHO-spap-hA2BAR membranes; format: binding
[3] = target: T2, A1 adenosine receptor (Homo sapiens, UniProt P30542); experiment: Radioligand binding, human A1 ([3H]R-PIA, HEK-293); details: HEK-293, [3H]R-PIA
T2 sequence (P30542 1-326): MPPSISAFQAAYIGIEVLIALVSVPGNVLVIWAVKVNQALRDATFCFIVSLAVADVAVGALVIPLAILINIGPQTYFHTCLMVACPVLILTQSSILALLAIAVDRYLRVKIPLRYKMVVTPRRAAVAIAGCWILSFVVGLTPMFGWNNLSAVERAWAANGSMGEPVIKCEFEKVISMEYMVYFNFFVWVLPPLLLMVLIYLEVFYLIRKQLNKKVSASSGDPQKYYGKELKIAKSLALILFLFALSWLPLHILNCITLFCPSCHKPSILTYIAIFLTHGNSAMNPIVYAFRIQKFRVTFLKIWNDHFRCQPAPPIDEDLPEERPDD
Description: (§1) The A2B receptor selectivity was generally low, especially at the rat A2B receptor.

[4] = target: T3, A1 adenosine receptor (Rattus norvegicus, UniProt P25099); experiment: Radioligand binding, rat A1 ([3H]R-PIA, HEK-293); details: HEK-293, [3H]R-PIA
T3 sequence (P25099 1-326): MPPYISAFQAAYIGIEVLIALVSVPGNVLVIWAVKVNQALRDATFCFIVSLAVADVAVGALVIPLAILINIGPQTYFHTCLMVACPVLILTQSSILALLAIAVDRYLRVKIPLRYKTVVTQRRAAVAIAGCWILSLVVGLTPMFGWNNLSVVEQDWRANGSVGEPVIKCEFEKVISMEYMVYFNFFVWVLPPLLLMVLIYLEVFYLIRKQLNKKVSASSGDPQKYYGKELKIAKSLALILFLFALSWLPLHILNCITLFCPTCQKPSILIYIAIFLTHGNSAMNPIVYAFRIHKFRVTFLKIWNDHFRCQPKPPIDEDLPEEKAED
Description: as §1

[5] = target: A2A adenosine receptor (Homo sapiens, UniProt P29274); experiment: Radioligand binding, human A2A ([3H]CGS21680, HEK-293); details: HEK-293, [3H]CGS21680
[6] = target: A2A adenosine receptor (Rattus norvegicus, UniProt P30543); experiment: Radioligand binding, rat A2A ([3H]CGS21680, HEK-293); details: rat (r), HEK-293, [3H]CGS21680
[7] = target: T4, A2B adenosine receptor (Rattus norvegicus, UniProt P29276); experiment: Radioligand binding, rat A2B ([125I]I-ABOPX, HEK-293); details: rat (r), HEK-293, [125I]I-ABOPX
T4 sequence (P29276 1-332): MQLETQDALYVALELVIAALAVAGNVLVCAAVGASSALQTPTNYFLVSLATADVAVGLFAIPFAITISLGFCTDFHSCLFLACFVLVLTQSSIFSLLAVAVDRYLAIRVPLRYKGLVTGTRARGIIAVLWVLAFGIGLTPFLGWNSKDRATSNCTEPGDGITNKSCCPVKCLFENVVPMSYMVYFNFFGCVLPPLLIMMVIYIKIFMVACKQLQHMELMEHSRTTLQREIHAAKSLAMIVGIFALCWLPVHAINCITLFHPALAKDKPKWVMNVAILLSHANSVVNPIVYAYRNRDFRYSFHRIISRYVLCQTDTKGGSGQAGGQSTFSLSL

[8] = target: T5, A2B adenosine receptor (Homo sapiens, UniProt P29275); experiment: Radioligand binding, human A2B ([125I]I-ABOPX, HEK-293); details: HEK-293, [125I]I-ABOPX
T5 sequence (P29275 1-332): T1 sequence (P29275 1-332)

[9] = target: T6, A3 adenosine receptor (Homo sapiens, UniProt P0DMS8); experiment: Radioligand binding, human A3 ([125I]I-AB-MECA, HEK-293); details: HEK-293, [125I]I-AB-MECA
T6 sequence (P0DMS8 1-318): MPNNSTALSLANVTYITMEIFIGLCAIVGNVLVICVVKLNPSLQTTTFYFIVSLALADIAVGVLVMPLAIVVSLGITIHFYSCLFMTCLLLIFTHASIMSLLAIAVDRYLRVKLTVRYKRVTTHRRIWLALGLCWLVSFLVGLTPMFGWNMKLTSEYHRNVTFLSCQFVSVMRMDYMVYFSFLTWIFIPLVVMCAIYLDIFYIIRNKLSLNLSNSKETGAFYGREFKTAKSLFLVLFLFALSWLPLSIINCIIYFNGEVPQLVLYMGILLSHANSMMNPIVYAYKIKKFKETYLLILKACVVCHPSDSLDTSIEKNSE
Description: as §1

[10] = […] [3H]PSB-603, 2 h, 25 °C, read-out: Ki (converted)

A2A adenosine receptor (Rattus norvegicus, UniProt P30543), sequence (P30543 whole entry): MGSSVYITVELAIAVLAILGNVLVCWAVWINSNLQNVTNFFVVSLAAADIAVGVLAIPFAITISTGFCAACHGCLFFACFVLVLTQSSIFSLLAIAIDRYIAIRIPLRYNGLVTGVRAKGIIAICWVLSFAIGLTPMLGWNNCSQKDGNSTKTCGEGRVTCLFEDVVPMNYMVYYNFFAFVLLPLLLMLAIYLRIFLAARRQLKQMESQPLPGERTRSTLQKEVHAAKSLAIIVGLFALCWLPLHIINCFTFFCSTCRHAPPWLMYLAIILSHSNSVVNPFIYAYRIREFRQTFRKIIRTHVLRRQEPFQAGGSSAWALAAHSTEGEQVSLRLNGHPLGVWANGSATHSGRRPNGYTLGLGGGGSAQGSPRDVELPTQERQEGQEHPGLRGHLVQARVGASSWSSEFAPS
A2A adenosine receptor (Homo sapiens, UniProt P29274), sequence (P29274 whole entry): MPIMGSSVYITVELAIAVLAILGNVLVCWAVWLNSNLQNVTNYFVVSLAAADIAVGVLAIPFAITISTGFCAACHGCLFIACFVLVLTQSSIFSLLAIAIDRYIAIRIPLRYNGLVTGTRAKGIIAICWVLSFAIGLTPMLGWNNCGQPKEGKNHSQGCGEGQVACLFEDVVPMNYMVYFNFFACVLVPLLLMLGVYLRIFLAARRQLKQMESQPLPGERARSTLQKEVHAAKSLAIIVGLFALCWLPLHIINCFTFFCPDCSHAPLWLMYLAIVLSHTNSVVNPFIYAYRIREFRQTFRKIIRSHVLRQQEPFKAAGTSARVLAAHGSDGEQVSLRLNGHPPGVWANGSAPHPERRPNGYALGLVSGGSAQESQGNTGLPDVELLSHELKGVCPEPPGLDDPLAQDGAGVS

| RT ([1]; 25 °C) | Ki [2, 10] [nM] | Kd [1] [nM] | koff ([1]; read-out: koff (converted)) [s⁻¹] | kon ([1]; read-out: kon (converted)) [M⁻¹ s⁻¹] | Ki [3] [nM] | Ki [4] [nM] | Ki [5] [nM] | Ki [6] [nM] | SMILES | further results |
| --- | --- | --- | --- | --- | --- | --- | --- | --- | --- | --- |
| 69 min and 69 ± 2.4 min | – | – | – | – | – | – | – | – | CCCn1c(=O)c2[nH]c(-c3ccc(OCC(=O)Nc4ccc(C#N)cc4)cc3)nc2n(CCC)c1=O [Compound 13] | – |
| 58 min and 58 ± 19 min | 13.5 | 12 ± 4.9 | 0.000283 | 23300 | – | – | – | – | CCCn1c(=O)c2[nH]c(-c3ccc(OCC(=O)Nc4ccc([N+](=O)[O-])cc4)cc3)nc2n(CCC)c1=O [Compound 14] | – |
| – | 2.86 | – | – | – | – | – | – | – | CCCn1c(=O)c2[nH]c(-c3ccc(OCC(=O)Nc4ccc(C(F)(F)F)cc4)cc3)nc2n(CCC)c1=O [Compound 15] | kon ([1]; competing ligand at 1.0-fold IC50, […] [3H]PSB-603, up to 3 hr, 25 °C): Kinetics outside the range of the assay (see text) |
| – | – | – | – | – | 54.7 ± 21.2 | 5.02 | 23.8 ± 5.7 | 25.9 | CCCn1c(=O)c2[nH]c(-c3ccc(OCC(=O)NCc4ccccc4)cc3)nc2n(CCC)c1=O [Compound 19] | – |
| 22 ± 3.5 min | 9.08 | 12 ± 4.7 | 0.000767 | 66700 | 212 ± 68 | 8.85 | 20.8 ± 2.4 | 207 | CCCn1c(=O)c2[nH]c(-c3ccc(OCC(=O)NCc4ccc(C)cc4)cc3)nc2n(CCC)c1=O [Compound 20, 2-(4-(2,6-dioxo-1,3-dipropyl-2,3,6,7-tetrahydro-1H-purin-8-yl)phenoxy)-N-(4-methylbenzyl)acetamide] | Ki [7]: 486 nM; Ki [8]: 8 ± 2.2 nM; Ki [9]: 140 ± 7 nM |
| – | 5.73 | 6.5 ± 3.6 | 0.000717 | 117000 | 586 ± 250 | 32.7 | 26.1 ± 0.4 | 112 | CCCn1c(=O)c2[nH]c(-c3ccc(OCC(=O)NCc4ccc(Br)cc4)cc3)nc2n(CCC)c1=O [Compound 22, N-(4-bromobenzyl)-2-(4-(2,6-dioxo-1,3-dipropyl-2,3,6,7-tetrahydro-1H-purin-8-yl)phenoxy)acetamide] | Ki [8]: 6.8 ± 0.8 nM; Ki [9]: 274 ± 56 nM |
| – | 24.4 | 27 ± 7.9 | 0.00165 | 66700 | – | – | – | – | CCCn1c(=O)c2[nH]c(-c3ccc(OCC(=O)NCc4ccc(O)c(O)c4)cc3)nc2n(CCC)c1=O [Compound 23, N-(3,4-dihydroxybenzyl)-2-(4-(2,6-dioxo-1,3-dipropyl-2,3,6,7-tetrahydro-1H-purin-8-yl)phenoxy)acetamide] | – |
| 19 ± 6.2 min | 37.9 | 31 ± 16 | 0.000883 | 28300 | – | – | – | – | CCCn1c(=O)c2[nH]c(-c3ccc(OCC(=O)NC(c4ccccc4)c4ccccc4)cc3)nc2n(CCC)c1=O [Compound 26] | – |
| – | – | – | – | – | – | – | – | – | CCCn1c(=O)c2[nH]c(-c3ccc(OCC(=O)N(Cc4ccccc4)Cc4ccccc4)cc3)nc2n(CCC)c1=O [Compound 27] | Ki ([2]; […] [3H]PSB-603, 2 h, 25 °C, read-out: pKi (converted)): 120 nM |

| SMILES | RT ([1]; 25 °C) | Ki [2, 10] [nM] | Kd [1] [nM] | koff ([1]; read-out: koff (converted)) [s⁻¹] | kon ([1]; read-out: kon (converted)) [M⁻¹ s⁻¹] | Ki [3] [nM] | Ki [4] [nM] | Ki [5] [nM] | Ki [6] [nM] | further results |
| --- | --- | --- | --- | --- | --- | --- | --- | --- | --- | --- |
| CCCn1c(=O)c2[nH]c(-c3ccc(OCC(=O)Nc4ccc(C(C)=O)cc4)cc3)nc2n(CCC)c1=O [Compound 16] | 54 min and 54 ± 18 min | – | 1.7 ± 0.58 | – | – | – | – | – | – | Ki [2]: 3.03 nM; koff [1]: 0.000317 s⁻¹; kon [1]: 183000 M⁻¹ s⁻¹ |
